SMILES strings stand for the structures. Where two headings read alike, the source gives them in different places.

Series [1] deals with Ba/F3 lines expressing the noted EGFR constructs. Put plainly: Ba/F3 proliferation inhibition (CellTiterGlo, 72 hr assay). The format is cell-based.
Series [2] deals with human NSCLC cell lines. Briefly: Human cancer cell line proliferation inhibition (CellTiterGlo). The format is cell-based. (In general: ATP-based viability assays read luminescence as a measure of living cells.)
Series [3] concerns pEGFR. Briefly: PC-9 (ex19del) PK/PD study, pEGFR pharmacodynamic readout. The format is in vivo. The note with it: 15 mg/kg single dose, over a 12-hour BID dosing window.
A short description of series [4]: Caco-2 in vitro permeability (efflux ratio). The format is in vitro ADME. The note with it: human, read-out: CAco-2 ER. For orientation: Passage across Caco-2 layers is used to estimate intestinal permeability.
Series [5] has as its target T1, MDR1 (Homo sapiens, UniProt P08183).
T1 construct: expressed in transfected cells; host or cells: MDCK
Put plainly: MDCK-MDR1 efflux. The format is in vitro ADME. Conditions: dog, read-out: MDCK-MDR1 ER.

In series [6] the target is T2, BCRP (Homo sapiens, UniProt Q9UNQ0).
T2 construct: expressed in transfected cells; host or cells: MDCK
T2 sequence (Q9UNQ0 1-655): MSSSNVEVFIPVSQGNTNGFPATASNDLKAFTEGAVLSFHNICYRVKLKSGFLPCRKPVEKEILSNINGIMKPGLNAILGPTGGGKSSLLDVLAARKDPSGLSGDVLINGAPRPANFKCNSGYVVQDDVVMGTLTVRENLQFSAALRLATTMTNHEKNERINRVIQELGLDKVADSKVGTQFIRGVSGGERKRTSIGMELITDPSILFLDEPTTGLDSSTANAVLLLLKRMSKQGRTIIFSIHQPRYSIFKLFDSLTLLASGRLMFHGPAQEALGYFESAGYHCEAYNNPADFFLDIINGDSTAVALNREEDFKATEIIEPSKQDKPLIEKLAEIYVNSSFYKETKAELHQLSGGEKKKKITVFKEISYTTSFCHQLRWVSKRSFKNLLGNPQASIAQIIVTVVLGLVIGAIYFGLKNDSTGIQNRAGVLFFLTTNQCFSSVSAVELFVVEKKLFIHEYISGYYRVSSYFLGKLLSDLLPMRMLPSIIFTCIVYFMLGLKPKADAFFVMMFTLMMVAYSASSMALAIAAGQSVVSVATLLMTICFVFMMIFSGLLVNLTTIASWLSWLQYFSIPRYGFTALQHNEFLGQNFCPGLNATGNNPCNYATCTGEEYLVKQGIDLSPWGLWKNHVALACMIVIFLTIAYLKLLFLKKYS
Put plainly: MDCK-BCRP efflux. The format is in vitro ADME. The note with it: dog, read-out: MDCK-BCRP ER.

Series [7] can be described thus: Free CNS penetration (Kp,uu), rat brain slice method. The format is in vivo, mice and rats. The note with it: oral dosing; rat brain slice method for free fraction in brain; osimertinib run in parallel as benchmark. The procedure: In order to characterise compound A in vitro and in vivo potency and selectivity for C797S-active double-mutant inhibitor vs. EGFR wild type, compound A was assessed in vitro and in vivo across a variety of engineered or endogenously occurring single (ex19del or L858R) or double (ex19del/C797S or L858R/C797S) mutant systems. In addition, the CNS exposure of compound A was also characterised using a gold-standard rat brain slice method to assess free exposure in brain tissue.
Compound A is an EGFR inhibitor of formula I(a). Compound A was tested across a panel of in vitro biochemical, cell signalling, and proliferation assays for potency against EGFR L858R and ex19del single mutants and/or the corresponding C797S double mutants. Additionally, compound A was tested for in vivo activity in mice bearing human NSCLC cell line xenografts NCI-H3255 (L858R) and PC-9 (ex19del), and in a PC-9-derived ex19del/C797S double mutant knock-in xenograft. Free CNS penetration (Kp,uu) was determined in nontumour bearing mice and rats. Osimertinib and/or gefitinib were used as benchmark molecules across assays.

Series [8] is classed as in vivo.
For series [9], the system named is pEGFR (phosphorylated EGFR, Tyr1068). Briefly: pEGFR (Tyr1068) inhibition, AlphaLISA. Conditions: compared with gefitinib.
From the text: (§1) A PC-9 derivative with an ex19del/C797S in cis double mutation was engineered by CRISPR knock-in.
In series [10] the test system is NCI-H3255 (L858R). Put plainly: L858R human tumour xenograft, tumour growth inhibition. Conditions: 5-15 mg/kg BID; L858R human tumour xenografts in mice. In general terms: Xenograft models place foreign cells or tissue in a host animal.
From the text: as §1
Series [11] has as its system PC-9 (ex19del). Put plainly: ex19del human tumour xenograft, tumour growth inhibition.
From the text: as §1
The subject of series [12] is PC-9 derivative with an ex19del/C797S in cis double mutation. Put plainly: C797S double mutant knock-in xenograft, tumour growth inhibition. Conditions: 15 mg/kg BID, PC-9 ex19del/C797S xenograft.
From the text: as §1

T1 sequence (P08183 whole entry): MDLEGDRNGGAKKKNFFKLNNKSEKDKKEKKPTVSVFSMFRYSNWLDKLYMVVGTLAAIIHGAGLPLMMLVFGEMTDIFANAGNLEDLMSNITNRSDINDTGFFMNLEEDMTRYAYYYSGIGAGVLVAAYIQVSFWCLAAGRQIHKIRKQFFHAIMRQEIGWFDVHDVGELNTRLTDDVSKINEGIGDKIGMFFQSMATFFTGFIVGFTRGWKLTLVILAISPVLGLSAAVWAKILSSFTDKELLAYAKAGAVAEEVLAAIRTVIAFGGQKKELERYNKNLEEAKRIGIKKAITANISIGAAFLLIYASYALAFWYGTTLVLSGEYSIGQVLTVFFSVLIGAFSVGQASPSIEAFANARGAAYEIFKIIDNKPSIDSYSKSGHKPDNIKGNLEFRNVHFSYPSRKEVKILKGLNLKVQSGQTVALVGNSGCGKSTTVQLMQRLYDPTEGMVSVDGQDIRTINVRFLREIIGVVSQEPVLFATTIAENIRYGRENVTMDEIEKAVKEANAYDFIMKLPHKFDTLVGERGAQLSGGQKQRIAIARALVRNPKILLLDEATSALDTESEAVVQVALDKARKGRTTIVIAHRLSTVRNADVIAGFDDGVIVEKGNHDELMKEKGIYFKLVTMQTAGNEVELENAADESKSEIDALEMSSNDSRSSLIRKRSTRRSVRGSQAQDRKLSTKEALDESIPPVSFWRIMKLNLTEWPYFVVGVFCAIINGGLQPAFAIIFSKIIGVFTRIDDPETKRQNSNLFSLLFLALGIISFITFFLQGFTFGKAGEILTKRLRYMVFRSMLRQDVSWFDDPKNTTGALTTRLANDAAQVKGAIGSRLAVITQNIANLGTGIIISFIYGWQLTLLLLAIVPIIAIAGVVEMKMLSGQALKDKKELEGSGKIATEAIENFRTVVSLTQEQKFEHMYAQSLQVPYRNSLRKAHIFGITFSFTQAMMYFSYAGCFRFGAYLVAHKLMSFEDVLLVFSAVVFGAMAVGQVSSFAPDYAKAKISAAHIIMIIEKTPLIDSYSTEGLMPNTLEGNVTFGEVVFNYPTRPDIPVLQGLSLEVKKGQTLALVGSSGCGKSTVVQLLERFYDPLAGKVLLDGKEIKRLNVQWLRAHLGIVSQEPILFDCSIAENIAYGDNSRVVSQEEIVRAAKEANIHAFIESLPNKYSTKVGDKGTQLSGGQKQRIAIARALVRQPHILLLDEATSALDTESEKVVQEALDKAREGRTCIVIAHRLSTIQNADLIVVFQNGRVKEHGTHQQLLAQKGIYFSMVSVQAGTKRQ

In the case of `COCC[C@H]1CNC(=O)c2c1[nH]c(-c1ccnc(C)n1)c2Nc1cccc(Cl)c1OC` [Compound A], the “inhibition of L858R, ex19del, L858R/C797S and ex19del/C797S mutants in proliferation assays” value in [1] (engineered Ba/F3) and in series [2] (human NSCLC cell lines) was “high picomolar to low nanomolar” in each case. Moreover, the “selectivity for all tested mutants relative to wild-type EGFR” value in series [1] (engineered Ba/F3 cells) and in [2] (human cancer cells) was > 150 x each time. Moreover, the inhibition (as a rule, the relative decrease from the control value, in per cent) at 15 mg/kg in [3] was > 50%. The efflux ratio at 1 µM in [4] stood at 1.76; in [5], 0.95; in series [6] it was 1.17. In [7], the “brain exposure Kp,uu” value is reported as “comparable to Osimertinib”. Moreover, the tolerability result in series [8] (15 mg/kg BID or 50 mg/kg QD in mice) is recorded as “well tolerated”; in [8] (5-15 mg/kg BID, mice) it was “well tolerated”. For the same compound, the “selectivity for all tested EGFR mutant cell lines relative to EGFR wild-type cell line NCI-H2073 (pEGFR inhibition IC50)” value in [9] is reported as “exceeded that of gefitinib”. Besides, the “tumour growth inhibition (TGI)” value in [10] is on record as ≥ 90%; in series [11] (5-15 mg/kg BID, ex19del human tumour xenografts in mice), ≥ 90%. The “antitumour activity in EGFR single mutant xenografts” value in series [11] (EGFR single mutant xenografts (ex19del or L858R), 15 mg/kg BID or 50 mg/kg QD in mice) was “regression”. The entries for the “in vivo tumour growth inhibition in the presence of C797S” value in series [12] and in series [12] (listed as compound A) were “retained in vivo tumour growth inhibition” and “no drop-off in antitumour activity”, respectively.

These data come from EP4534085A1, “COMPOUNDS FOR USE IN METHODS OF TREATING CANCER” (Scorpion Therapeutics, Inc., priority 2023, dated 2025).
